# Legend:
# Spo20p-GFP = biological target: T1, Spo20p-GFP (Saccharomyces cerevisiae, UniProt Q04359); assay: Recruitment of Spo20p-GFP to the plasma membrane of PC12 cells after incubation with GPL (confocal microscopy); type: cell-based; conditions: GPL 100 μM, 5 min incubation, PC12 cells expressing Spo20p-GFP, FIG. 1
# T1 construct: expressed in transfected cells; host or cells: PC12 cells
# T1 sequence (Q04359 51-91 limits assumed): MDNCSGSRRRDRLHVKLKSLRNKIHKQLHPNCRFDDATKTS
# Protocol: This example illustrates the interaction between GPL (Ia) or (Ib) and a phosphatidic acid (PA) mobilizing protein, the green-fluorescent protein Spo20p-GFP, expressed in target cells.
# For this purpose, GPL (Ia) and, for comparative purposes, a natural GPL PA 18:1-18:0 (referred to hereinbelow as GPL C1) sold under reference 840861C by Avanti Polar Lipids, are incubated for 5 min at a concentration of 100 μM, with PC12 cells expressing Spo20p-GFP.
# Similarly, GPL (Ib) and, for comparative purposes, a natural GPL PA 18:2-18:0 (referred to hereinbelow as GPL C2) sold under reference 840862C by Avanti Polar Lipids, are incubated for 5 min at a concentration of 100 μM, with PC12 cells expressing Spo20p-GFP.
# The GPL-free cell medium is used as a control (referred to hereinbelow as […]).
# A marker referred to hereinbelow as Membright (obtained from Mayeul Collot UMR-7021, Strasbourg) is incubated for 5 minutes on cells in media as prepared above to specifically mark the cells' plasma membrane.
# [1] = Formation of giant liposomes (96% DOPC / 4% GPL) by PVA-assisted swelling, light and confocal microscopy; type: physicochemical; conditions: liposomes 96% by mass DOPC and 4% by mass GPL, 1 mM, FIG. 3 and 4
# Protocol: (§1) For this purpose, giant liposomes composed of 96% by mass of dioleoylphosphatidylcholine (DOPC) and 4% by mass of GPL (XIVa), and, for comparative purposes, giant liposomes composed of 96% by mass of dioleoylphosphatidylcholine (DOPC) and 4% by mass of a natural GPL modified with a nitrobenzadiazole-based fluorophore: PA 18:1-6:0 NBD sold under the reference 810175C by Avanti Polar Lipids, at a concentration of 1 mM, are prepared using the polyvinyl alcohol (PVA)-assisted swelling method as described in Carmon et al., FASEB J., 2020, 34:6769-6790).
# CgA-AF633 = biological target: T2, CgA-AF633 (Homo sapiens, UniProt P10645); assay: Interaction of CgA-AF633 protein with giant liposomes containing GPL (confocal microscopy); type: binding; conditions: CgA-AF633 4 μM, liposomes 96% DOPC / 4% GPL, FIG. 5
# T2 sequence (P10645 19-457): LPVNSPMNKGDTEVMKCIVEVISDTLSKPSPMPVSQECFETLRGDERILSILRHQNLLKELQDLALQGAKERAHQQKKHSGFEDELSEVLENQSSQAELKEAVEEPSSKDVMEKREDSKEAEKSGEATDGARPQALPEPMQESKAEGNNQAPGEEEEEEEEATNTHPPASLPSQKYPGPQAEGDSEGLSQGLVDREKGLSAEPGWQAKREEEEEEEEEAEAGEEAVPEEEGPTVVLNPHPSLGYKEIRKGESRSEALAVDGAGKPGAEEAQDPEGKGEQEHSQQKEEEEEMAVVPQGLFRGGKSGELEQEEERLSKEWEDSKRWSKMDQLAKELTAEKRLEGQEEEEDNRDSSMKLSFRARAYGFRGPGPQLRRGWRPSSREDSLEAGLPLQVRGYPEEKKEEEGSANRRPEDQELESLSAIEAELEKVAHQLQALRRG
# Excerpt: This example illustrates the interaction between GPL (XIVa), which fluoresces green (by means of a nitrobenzadiazole-based fluorophore), and a red-fluorescent phosphatidic acid (PA) mobilizing protein, CgA-AF633.
# as §1
# CgA, rendered red-fluorescent due to its coupling with the fluorophore Alexa 633 or AF633 (CgA-AF633), is incubated at 4 μM concentration with liposomes as prepared above. […]
membrane deformations in the liposomes on incubation with CgA-AF633 (CgA-AF633),Compound,recruitment of the Spo20p-GFP protein to the plasma membrane (Spo20p-GFP),participation in the formation of giant liposomes [1],interaction of the CgA-AF633 protein with liposomes containing the GPL (CgA-AF633)
,"CCCCCCCC/C=C\CCCCCCCC(=O)O[C@@H](COP(=O)(O)O)[C@H](CN=[N+]=[N-])OC(=O)CCCCCCCCCCCCCCCCC [GPL (Ia), (2S,3S)-4-azido-2-(oleoyloxy)-3-(stearoyloxy)butyl hydrogen phosphate]",bring about recruitment of the Spo20p-GFP protein to the plasma membrane of PC12 cells in the same manner as do the corresponding natural GPLs,,
does result in membrane deformations,"CCCCCCCC/C=C\CCCCCCCC(=O)O[C@@H](COP(=O)(O)O)[C@H](Cn1nnc2c1-c1ccccc1CN(C(=O)CCCCCNc1ccc([N+](=O)[O-])c3nonc13)c1ccccc1-2)OC(=O)CCCCCCCCCCCCCCCCC [GPL (XIVa), (2S,3S)-4-(8-(6-((7-nitrobenzo[c][1,2,5]oxadiazol-4-yl)amino)hexanoyl)-8,9-dihydro-1H-dibenzo[b,f][1,2,3]triazolo[4,5-d]azocin-1-yl)-1-(phosphonooxy)-3-(stearoyloxy)butan-2-yl oleate]",,participates in the formation of giant liposomes,only interacts with liposomes containing GPL (XIVa)
